Broadly, the IC50 is the concentration at which inhibition is half-maximal.

This note sets out measurements from patent publication US11648254B2 (Kumquat Biosciences Inc., priority 2021, dated 2023).

The test system of series [1] is MIA PaCa-2 cells (K-Ras G12C). In words: Ras-SOS cellular growth inhibition assay (CellTiter-Glo, 3D). The class given is cell-based. To be noted: Homo sapiens. The procedure, abridged: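 MIA PaCa-2 cells grown in ultra-low-attachment plates (3D) in DMEM/Ham's F12 with 10% FCS and 2.5% horse serum, treated the day after seeding with a 9-point 3-fold compound series for about 5 days. Viability by CellTiter-Glo luminescence; IC50 from four-parameter fit.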
In general terms: In ATP-based viability assays light output follows the ATP content of the culture.

The target in a further series is SOS1 (Homo sapiens (Human), UniProt Q07889). The series is described as follows: Ras-SOS interaction assay (HTRF). The class given is biochemical. For orientation: Time-resolved FRET reads energy transfer from a long-lived donor to a nearby acceptor.
Sequence of SOS1 (Q07889 564-1049): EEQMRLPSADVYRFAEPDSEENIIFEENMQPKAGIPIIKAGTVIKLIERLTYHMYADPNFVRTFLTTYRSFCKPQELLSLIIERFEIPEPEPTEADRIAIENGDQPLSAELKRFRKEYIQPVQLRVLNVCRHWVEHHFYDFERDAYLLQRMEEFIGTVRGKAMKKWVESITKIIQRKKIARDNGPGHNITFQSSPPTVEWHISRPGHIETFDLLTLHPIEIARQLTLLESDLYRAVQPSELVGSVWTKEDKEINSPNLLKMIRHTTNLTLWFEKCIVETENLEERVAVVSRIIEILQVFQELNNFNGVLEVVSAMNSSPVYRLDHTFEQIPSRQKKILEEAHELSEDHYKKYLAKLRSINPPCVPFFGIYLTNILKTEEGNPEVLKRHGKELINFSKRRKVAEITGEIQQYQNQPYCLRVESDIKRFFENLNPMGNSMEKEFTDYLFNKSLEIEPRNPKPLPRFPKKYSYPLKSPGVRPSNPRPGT
A short description of series [2]: Metabolic (microsomal) stability assay. The class given is in vitro ADME. To be noted: mouse liver microsomes, T1/2; read-out: DMPK-invitro-metabolic Stability (Mouse T1/2). From the text: Example 12: Metabolic (Microsomal) Stability Assay
In general terms: Liver microsomes are a subcellular fraction often used to study metabolism.

The test system of series [3] is NCI-H1975 cells (EGFR T790M L858R). The series is described as follows: EGFR-SOS cellular inhibition assay (CellTiter-Glo, 3D). The format is cell-based. To be noted: Homo sapiens.
Series [4] in a line: In vitro plasma protein binding (PPB). The format is in vitro ADME. To be noted: percentage of free/unbound compound.
Setting [5] is: MIA PaCa-2, 120 h, MIA PaCa-2, 3D proliferation, about 5 days, read-out: Bio-Cell-Prolif-3D (MiaPaca2 IC50).
Setting [6] is: MIA PaCa-2, MIA PaCa-2, read-out: IC50 in inhibiting MIA PaCa-2 cell growth.
[7] abbreviates: K-RasG13D utilized, read-out: IC50 inhibition of SOS.
Where [8] appears, read: 120 h, NCI-H1975, 3D proliferation, about 5 days, read-out: Bio-Cell-Prolif-3D (H1975 IC50).
Setting [9] is: NCI-H1975, EGFR T790M L858R, read-out: IC50 in inhibiting growth of NCI-H1975 cell line.
The mark [10] stands for this setting: K-RasG13D, read-out: IC50 value against SOS1.

The structures appear in SMILES notation. Where two headings read alike, the source gives them in different places.

In the case of `Cc1nc(N[C@H](C)c2cccc(C(F)(F)C(C)(C)O)c2F)c2cc(C3(C#N)CC3)c(Cl)nc2n1` [Compound 170, (R)-1-(7-chloro-4-((1-(3-(1,1-difluoro-2-hydroxy-2-methylpropyl)-2-fluorophenyl)ethyl)amino)-2-methylpyrido[2,3-d]pyrimidin-6-yl)cyclopropane-1-carbonitrile], the IC50 was at most 1000 nM in series [1] (setting [5]); below 500 nM in series [1] (setting [6]); below 100 nM at SOS1 (setting [7]); at most 1000 nM in series [3] (setting [8]); below 500 nM in series [3] (setting [9]). Also, the half-life in series [2] is above 3.33 h.

Regarding `Cc1nc(N[C@H](C)c2cccc(C(F)(F)C(C)(C)O)c2)c2cc(C3(C#N)CC3)c(Cl)nc2n1` [Compound 193, (R)-1-(7-chloro-4-((1-(3-(1,1-difluoro-2-hydroxy-2-methylpropyl)phenyl)ethyl)amino)-2-methylpyrido[2,3-d]pyrimidin-6-yl)cyclopropane-1-carbonitrile], the half-maximal inhibitory concentration (IC50) in series [1] (setting [5]) was at most 1000 nM; in series [1] (setting [6]), below 500 nM; at SOS1 (setting [7]) it was below 100 nM; at SOS1 (setting [10]), below 50 nM; in series [3] (setting [8]), at most 1000 nM; in series [3] (setting [9]), below 500 nM. For the same molecule, the half-life in series [2] was above 3.33 h.

For `COc1nc2ncnc(N[C@H](C)c3cccc(C(F)(F)F)c3F)c2cc1N1CCS(=O)(=O)CC1` [Compound 308, (R)-4-(4-((1-(2-fluoro-3-(trifluoromethyl)phenyl)ethyl)amino)-7-methoxypyrido[2,3-d]pyrimidin-6-yl)thiomorpholine 1,1-dioxide], the IC50 in series [1] (setting [5]) is at most 1000 nM; in series [1] (setting [6]), below 500 nM; at SOS1 (setting [7]) it was below 100 nM; on SOS1 (setting [10]), below 50 nM; in series [3] (setting [8]) it was at most 1000 nM; in series [3] (setting [9]) it was below 500 nM. Moreover, in series [4], the “DMPK-invitro-PPB (Mouse Unbound) [%]” value is on record as 2.91%.

Regarding `COc1nc2ncnc(N[C@H](C)c3cccc(C(F)F)c3F)c2cc1N1CCN(C(C)C)CC1` [Compound 316, (R)-N-(1-(3-(difluoromethyl)-2-fluorophenyl)ethyl)-6-(4-isopropylpiperazin-1-yl)-7-methoxypyrido[2,3-d]pyrimidin-4-amine], the IC50 in series [1] (setting [5]) was 1000 to 10000 nM; on SOS1 (setting [7]), below 100 nM; on SOS1 (setting [10]), below 50 nM; in series [3] (setting [8]) it was at most 1000 nM; in series [3] (setting [9]) it was below 500 nM. Also, the “DMPK-invitro-PPB (Mouse Unbound) [%]” value in series [4] is 9.83%.

Regarding `COc1nc2nc(C)nc(N[C@H](C)c3cccc(C(F)(F)C(C)(C)O)c3F)c2cc1N1CCN(C(C)C)CC1` [Compound 322, (R)-1,1-difluoro-1-(2-fluoro-3-(1-((6-(4-isopropylpiperazin-1-yl)-7-methoxy-2-methylpyrido[2,3-d]pyrimidin-4-yl)amino)ethyl)phenyl)-2-methylpropan-2-ol], the IC50 is at most 1000 nM in series [1] (setting [5]); below 500 nM in series [1] (setting [6]); below 100 nM at SOS1 (setting [7]); below 50 nM on SOS1 (setting [10]); at most 1000 nM in series [3] (setting [8]); below 500 nM in series [3] (setting [9]). The “DMPK-invitro-PPB (Mouse Unbound) [%]” value in series [4] stood at 6.33%.

In the case of `COc1nc2nc(C)nc(N[C@H](C)c3cccc(C(F)(F)C(C)(C)O)c3)c2cc1N1CCN(C(C)C)CC1` [Compound 325, (R)-1,1-difluoro-1-(3-(1-((6-(4-isopropylpiperazin-1-yl)-7-methoxy-2-methylpyrido[2,3-d]pyrimidin-4-yl)amino)ethyl)phenyl)-2-methylpropan-2-ol], the IC50 in series [1] (setting [5]) is at most 1000 nM; in series [1] (setting [6]) it was below 500 nM; on SOS1 (setting [7]), below 100 nM; on SOS1 (setting [10]) it was below 50 nM; in series [3] (setting [8]), at most 1000 nM; in series [3] (setting [9]), below 500 nM. The “DMPK-invitro-PPB (Mouse Unbound) [%]” value in series [4] worked out at 12.8%.

Take `COc1nc2ncnc(N[C@H](C)c3cccc(C(F)F)c3F)c2cc1N1CCS(=O)(=O)CC1` [Compound 339, (R)-4-(4-((1-(3-(difluoromethyl)-2-fluorophenyl)ethyl)amino)-7-methoxypyrido[2,3-d]pyrimidin-6-yl)thiomorpholine 1,1-dioxide]: the IC50 is at most 1000 nM in series [1] (setting [5]); below 100 nM at SOS1 (setting [7]); below 50 nM at SOS1 (setting [10]); at most 1000 nM in series [3] (setting [8]); below 500 nM in series [3] (setting [9]). For the same molecule, in series [4], the “DMPK-invitro-PPB (Mouse Unbound) [%]” value is 15.32%.

Turning to `COc1nc2ncnc(N[C@H](C)c3cccc(C(F)(F)F)c3C)c2cc1C1CCN(C(C)C)CC1` [Compound 348, (R)-6-(1-isopropylpiperidin-4-yl)-7-methoxy-N-(1-(2-methyl-3-(trifluoromethyl)phenyl)ethyl)pyrido [2,3-d]pyrimidin-4-amine], the concentration for half-maximal inhibition (IC50) is at most 1000 nM in series [1] (setting [5]); below 100 nM on SOS1 (setting [7]); below 50 nM at SOS1 (setting [10]); at most 1000 nM in series [3] (setting [8]); below 500 nM in series [3] (setting [9]). Further, the “DMPK-invitro-PPB (Mouse Unbound) [%]” value in series [4] turned out to be 1.03%.

As for `CCN1CCC(c2cc3c(N[C@H](C)c4cccc(C(F)(F)F)c4C)nc(C)nc3nc2OC)CC1` [Compound 351, (R)-6-(1-ethylpiperidin-4-yl)-7-methoxy-2-methyl-N-(1-(2-methyl-3-(trifluoromethyl)phenyl)ethyl)pyrido [2,3-d]pyrimidin-4-amine], the 50% inhibitory concentration (IC50) in series [1] (setting [5]) is at most 1000 nM; in series [1] (setting [6]), below 500 nM; at SOS1 (setting [7]), below 100 nM; on SOS1 (setting [10]), below 50 nM; in series [3] (setting [8]), at most 1000 nM; in series [3] (setting [9]) it was below 500 nM. Also, the “DMPK-invitro-PPB (Mouse Unbound) [%]” value in series [4] was 0.22%.

With `CCN1CCC(c2cc3c(N[C@H](C)c4cccc(C(F)(F)F)c4C)ncnc3nc2OC)CC1` [Compound 353, (R)-6-(1-ethylpiperidin-4-yl)-7-methoxy-N-(1-(2-methyl-3-(trifluoromethyl)phenyl)ethyl)pyrido [2,3-d]pyrimidin-4-amine], the 50% inhibitory concentration (IC50) was at most 1000 nM in series [1] (setting [5]); below 500 nM in series [1] (setting [6]); below 100 nM on SOS1 (setting [7]); below 50 nM at SOS1 (setting [10]); at most 1000 nM in series [3] (setting [8]); below 500 nM in series [3] (setting [9]). Besides, in series [4], the “DMPK-invitro-PPB (Mouse Unbound) [%]” value was 0.74%.

As to `COc1nc2ncnc(N[C@H](C)c3cccc(C(F)(F)F)c3C)c2cc1C1CCS(=O)(=O)CC1` [Compound 373, (R)-4-(7-methoxy-4-((1-(2-methyl-3-(trifluoromethyl)phenyl)ethyl)amino)pyrido[2,3-d]pyrimidin-6-yl)tetrahydro-2H-thiopyran 1,1-dioxide], the IC50 in series [1] (setting [5]) was at most 1000 nM; in series [1] (setting [6]), below 500 nM; on SOS1 (setting [10]) it was below 50 nM; in series [3] (setting [8]) it was at most 1000 nM. In series [4], the “DMPK-invitro-PPB (Mouse Unbound) [%]” value is given as 2.93%.

In the case of `COc1nc2ncnc(N[C@H](C)c3cccc(C(F)(F)F)c3C)c2cc1C1CCN(C2CCOCC2)CC1` [Compound 374, (R)-7-methoxy-N-(1-(2-methyl-3-(trifluoromethyl)phenyl)ethyl)-6-(1-(tetrahydro-2H-pyran-4-yl)piperidin-4-yl)pyrido[2,3-d]pyrimidin-4-amine], the IC50 in series [1] (setting [5]) was at most 1000 nM; in series [1] (setting [6]), below 500 nM; on SOS1 (setting [10]), below 50 nM; in series [3] (setting [8]), at most 1000 nM; in series [3] (setting [9]) it was below 500 nM. In series [4], the “DMPK-invitro-PPB (Mouse Unbound) [%]” value stood at 0.45%.

Turning to `COc1nc2ncnc(N[C@H](C)c3cccc(C(F)(F)F)c3F)c2cc1C1CCS(=O)(=O)CC1` [Compound 375, (R)-4-(4-((1-(2-fluoro-3-(trifluoromethyl)phenyl)ethyl)amino)-7-methoxypyrido[2,3-d]pyrimidin-6-yl)tetrahydro-2H-thiopyran 1,1-dioxide], the half-maximal inhibitory concentration (IC50) in series [1] (setting [5]) was at most 1000 nM; in series [1] (setting [6]), below 500 nM; at SOS1 (setting [7]) it was below 100 nM; at SOS1 (setting [10]), below 50 nM; in series [3] (setting [8]) it was at most 1000 nM; in series [3] (setting [9]), below 500 nM. Besides, the “DMPK-invitro-PPB (Mouse Unbound) [%]” value in series [4] came to 2.67%.

As to `COc1nc2ncnc(N[C@H](C)c3cccc(C(F)(F)F)c3C)c2cc1N1CCN(C(C)C)CC1` [Compound 376, (R)-6-(4-isopropylpiperazin-1-yl)-7-methoxy-N-(1-(2-methyl-3-(trifluoromethyl)phenyl)ethyl)pyrido [2,3-d]pyrimidin-4-anune], the IC50 in series [1] (setting [5]) is at most 1000 nM; in series [1] (setting [6]) it was below 500 nM; on SOS1 (setting [7]), below 100 nM; on SOS1 (setting [10]), below 50 nM; in series [3] (setting [8]), at most 1000 nM; in series [3] (setting [9]) it was below 500 nM. In addition, the “DMPK-invitro-PPB (Mouse Unbound) [%]” value in series [4] came out at 0.91%.

In the case of `COc1nc2nc(C)nc(N[C@H](C)c3cccc(C(F)(F)F)c3C)c2cc1N1CCN(C2CCOCC2)CC1` [Compound 378, (R)-7-methoxy-2-methyl-N-(1-(2-methyl-3-(trifluoromethyl)phenyl)ethyl)-6-(4-(tetrahydro-2H-pyran-4-yl)piperazin-1-yl)pyrido[2,3-d]pyrimidin-4-amine], the half-maximal inhibitory concentration (IC50) in series [1] (setting [5]) was at most 1000 nM; in series [1] (setting [6]), below 500 nM; at SOS1 (setting [7]) it was below 100 nM; on SOS1 (setting [10]) it was below 50 nM; in series [3] (setting [8]), at most 1000 nM; in series [3] (setting [9]), below 500 nM. Also, the “DMPK-invitro-PPB (Mouse Unbound) [%]” value in series [4] is recorded as 0.14%.
